According to PubChem BioAssay AID504754 (National Center for Advancing Translational Sciences (NCATS), 2011):

Test system: mouse liver microsomes, LC-MS/MS half-life
Test: Inhibitors of Cruzain: Metabolic Stability Theory
Conditions: at 1 µM; active compounds read high
Text: Chagas Disease is a neglected tropical disease that affects over 16 million people in Latin America. The cysteine protease cruzain is essential for the survival Trypanosoma cruzi, the parasitic agent responsible for Chagas disease. Potential intervention for T. cruzi includes the inhibition of cruzain. This bioassay will summarize the ongoing development of small molecule cruzain inhbitiors. Currently, a screen of ~200k compounds and through extensive follow-up work a probe was identified. To further characterize the probe, it was tested in in vitro ADME assays. Mouse liver microsomes are created through broken up endoplasmic reticulum from mouse liver. These liver microsomes contain many drug metabolizing enzymes, such as Cytochome P-450s and flavin-containing monooxygenases. Because metabolism is major way of drug clearance, this is an important result. NIH Chemical Genomics Center [NCGC] NIH Molecular Libraries Probe Production Centers Network [MLPCN] MLSCN Grant: DA024891-01 PI Name: Dr. Brian Shoichet; University of California, San Francisco
1uM of compound in incubated in mouse liver microsome; the reference compound is ketanserin. Compounds are incubated at 37 degrees C for different time periods: 0, 5, 15, 30, 45, and 60 minutes. Samples are analyzed with LC-MS/MS.

Cc1ccc(OCCn2c(CCNC(=O)C3CCCCC3)nc3ccccc32)cc1
half-life: 8 min
